Data from PubChem BioAssay (NCI).
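Grown in 96-well plates, cells were treated for 48 hours with each compound at five concentrations. Insufficient inhibition: endpoint recorded as highest concentration tested. The concentration for full growth arrest is given as TGI.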

Tests used:
Assay in all cases: DTP human tumour cell line panel, 48 h
UO-31 renal = system: UO-31 renal
OVCAR-3 ovarian = system: OVCAR-3 ovarian
T-47D breast = system: T-47D breast
MDA-MB-231 breast = system: MDA-MB-231 breast
MDA-MB-435 = system: MDA-MB-435
OVCAR-8 ovarian = system: OVCAR-8 ovarian
HS 578T breast = system: HS 578T breast
MCF7 breast = system: MCF7 breast
MDA-N = system: MDA-N
NCI/ADR-RES ovarian = system: NCI/ADR-RES ovarian
786-0 renal = system: 786-0 renal
SK-OV-3 ovarian = system: SK-OV-3 ovarian
SK-MEL-2 melanoma = system: SK-MEL-2 melanoma
SNB-19 CNS = system: SNB-19 CNS
SN12C renal = system: SN12C renal
M14 melanoma = system: M14 melanoma
KM12 colon = system: KM12 colon
CCRF-CEM leukemia = system: CCRF-CEM leukemia
TK-10 renal = system: TK-10 renal
RPMI-8226 leukemia = system: RPMI-8226 leukemia
DU-145 prostate = system: DU-145 prostate
NCI-H226 lung = system: NCI-H226 lung
OVCAR-5 ovarian = system: OVCAR-5 ovarian
PC-3 prostate = system: PC-3 prostate
ACHN renal = system: ACHN renal
SK-MEL-5 melanoma = system: SK-MEL-5 melanoma
HOP-62 NSCLC = system: HOP-62 NSCLC
NCI-H460 lung = system: NCI-H460 lung
HCC-2998 colon = system: HCC-2998 colon
UACC-257 melanoma = system: UACC-257 melanoma
U251 CNS = system: U251 CNS
BT-549 breast = system: BT-549 breast
HL-60(TB) leukemia = system: HL-60(TB) leukemia
HT29 colon = system: HT29 colon
UACC-62 melanoma = system: UACC-62 melanoma
K-562 leukemia = system: K-562 leukemia
CAKI-1 renal = system: CAKI-1 renal
SK-MEL-28 melanoma = system: SK-MEL-28 melanoma
IGROV1 ovarian = system: IGROV1 ovarian
SNB-75 CNS = system: SNB-75 CNS
SF-268 CNS = system: SF-268 CNS
OVCAR-4 ovarian = system: OVCAR-4 ovarian
HCT-15 colon = system: HCT-15 colon
A549 NSCLC = system: A549 NSCLC
MOLT-4 leukemia = system: MOLT-4 leukemia
HCT-116 colon = system: HCT-116 colon
COLO 205 colon = system: COLO 205 colon
EKVX NSCLC = system: EKVX NSCLC
MALME-3M melanoma = system: MALME-3M melanoma
NCI-H23 lung = system: NCI-H23 lung
SF-295 CNS = system: SF-295 CNS
RXF 393 renal = system: RXF 393 renal
SW-620 colon = system: SW-620 colon
NCI-H522 lung = system: NCI-H522 lung
HOP-92 NSCLC = system: HOP-92 NSCLC
SF-539 CNS = system: SF-539 CNS
A498 renal = system: A498 renal
LOX IMVI melanoma = system: LOX IMVI melanoma

## O=S(=O)(c1ccc(Cl)cc1)c1ccccc1C1=NCCN1
UO-31 renal
  TGI: > 100 µM
OVCAR-3 ovarian
  TGI: > 100 µM
T-47D breast
  TGI: > 100 µM
MDA-MB-231 breast
  TGI: > 100 µM
MDA-MB-435
  TGI: > 100 µM
OVCAR-8 ovarian
  TGI: > 100 µM
HS 578T breast
  TGI: > 100 µM
MCF7 breast
  TGI: > 100 µM
MDA-N
  TGI: > 100 µM
NCI/ADR-RES ovarian
  TGI: > 100 µM
786-0 renal
  TGI: > 100 µM
SK-OV-3 ovarian
  TGI: > 100 µM
SK-MEL-2 melanoma
  TGI: > 100 µM
SNB-19 CNS
  TGI: > 100 µM
SN12C renal
  TGI: > 100 µM
M14 melanoma
  TGI: > 100 µM
KM12 colon
  TGI: > 100 µM
CCRF-CEM leukemia
  TGI: > 100 µM
TK-10 renal
  TGI: > 100 µM
RPMI-8226 leukemia
  TGI: > 100 µM
DU-145 prostate
  TGI: > 100 µM
NCI-H226 lung
  TGI: > 100 µM
OVCAR-5 ovarian
  TGI: > 100 µM
PC-3 prostate
  TGI: > 100 µM
ACHN renal
  TGI: > 100 µM
SK-MEL-5 melanoma
  TGI: > 100 µM
HOP-62 NSCLC
  TGI: > 100 µM
NCI-H460 lung
  TGI: > 100 µM
HCC-2998 colon
  TGI: > 100 µM
UACC-257 melanoma
  TGI: > 100 µM
U251 CNS
  TGI: > 100 µM
BT-549 breast
  TGI: > 100 µM
HL-60(TB) leukemia
  TGI: > 100 µM
HT29 colon
  TGI: > 100 µM
UACC-62 melanoma
  TGI: > 100 µM
K-562 leukemia
  TGI: > 100 µM
CAKI-1 renal
  TGI: > 100 µM
SK-MEL-28 melanoma
  TGI: > 100 µM
IGROV1 ovarian
  TGI: > 100 µM
SNB-75 CNS
  TGI: > 100 µM
SF-268 CNS
  TGI: > 100 µM
OVCAR-4 ovarian
  TGI: > 100 µM
HCT-15 colon
  TGI: > 100 µM
A549 NSCLC
  TGI: > 100 µM
MOLT-4 leukemia
  TGI: > 100 µM
HCT-116 colon
  TGI: > 100 µM
COLO 205 colon
  TGI: > 100 µM
EKVX NSCLC
  TGI: > 100 µM
MALME-3M melanoma
  TGI: > 100 µM
NCI-H23 lung
  TGI: > 100 µM
SF-295 CNS
  TGI: > 100 µM
RXF 393 renal
  TGI: > 100 µM
SW-620 colon
  TGI: > 100 µM

## Nc1cccc2nnccc12
UO-31 renal
  TGI: > 100 µM
NCI-H522 lung
  TGI: > 100 µM
T-47D breast
  TGI: > 100 µM
MDA-MB-231 breast
  TGI: > 100 µM
MDA-MB-435
  TGI: > 100 µM
OVCAR-8 ovarian
  TGI: > 100 µM
HS 578T breast
  TGI: > 100 µM
MCF7 breast
  TGI: > 100 µM
MDA-N
  TGI: > 100 µM
NCI/ADR-RES ovarian
  TGI: > 100 µM
786-0 renal
  TGI: > 100 µM
SK-OV-3 ovarian
  TGI: > 100 µM
HOP-92 NSCLC
  TGI: > 100 µM
SK-MEL-2 melanoma
  TGI: > 100 µM
SNB-19 CNS
  TGI: > 100 µM
SN12C renal
  TGI: > 100 µM
M14 melanoma
  TGI: > 100 µM
KM12 colon
  TGI: > 100 µM
CCRF-CEM leukemia
  TGI: > 100 µM
TK-10 renal
  TGI: > 100 µM
RPMI-8226 leukemia
  TGI: > 100 µM
DU-145 prostate
  TGI: > 100 µM
NCI-H226 lung
  TGI: > 100 µM
OVCAR-5 ovarian
  TGI: > 100 µM
PC-3 prostate
  TGI: > 100 µM
ACHN renal
  TGI: > 100 µM
SK-MEL-5 melanoma
  TGI: > 100 µM
SF-539 CNS
  TGI: > 100 µM
NCI-H460 lung
  TGI: > 100 µM
UACC-257 melanoma
  TGI: > 100 µM
U251 CNS
  TGI: > 100 µM
BT-549 breast
  TGI: > 100 µM
HL-60(TB) leukemia
  TGI: > 100 µM
HT29 colon
  TGI: > 100 µM
UACC-62 melanoma
  TGI: > 100 µM
CAKI-1 renal
  TGI: > 100 µM
IGROV1 ovarian
  TGI: > 100 µM
SNB-75 CNS
  TGI: > 100 µM
SF-268 CNS
  TGI: > 100 µM
HCT-15 colon
  TGI: > 100 µM
A549 NSCLC
  TGI: > 100 µM
HCT-116 colon
  TGI: > 100 µM
COLO 205 colon
  TGI: > 100 µM
EKVX NSCLC
  TGI: > 100 µM
MALME-3M melanoma
  TGI: > 100 µM
NCI-H23 lung
  TGI: > 100 µM
SF-295 CNS
  TGI: > 100 µM
RXF 393 renal
  TGI: > 100 µM
SW-620 colon
  TGI: > 100 µM

## Cc1cc2c(O)c(c1)CN(Cc1ccccc1)Cc1cc(C)cc(c1O)CN(Cc1ccccc1)Cc1cc(C)cc(c1O)CN(Cc1ccccc1)C2
UO-31 renal
  TGI: > 100 µM
OVCAR-3 ovarian
  TGI: > 100 µM
NCI-H522 lung
  TGI: > 100 µM
T-47D breast
  TGI: > 100 µM
MDA-MB-231 breast
  TGI: > 100 µM
MDA-MB-435
  TGI: > 100 µM
OVCAR-8 ovarian
  TGI: > 100 µM
HS 578T breast
  TGI: > 100 µM
MCF7 breast
  TGI: > 100 µM
MDA-N
  TGI: > 100 µM
NCI/ADR-RES ovarian
  TGI: > 100 µM
786-0 renal
  TGI: > 100 µM
SK-OV-3 ovarian
  TGI: > 100 µM
SK-MEL-2 melanoma
  TGI: 95.2 µM
SNB-19 CNS
  TGI: > 100 µM
SN12C renal
  TGI: > 100 µM
M14 melanoma
  TGI: > 100 µM
KM12 colon
  TGI: > 100 µM
CCRF-CEM leukemia
  TGI: > 100 µM
TK-10 renal
  TGI: > 100 µM
RPMI-8226 leukemia
  TGI: > 100 µM
DU-145 prostate
  TGI: > 100 µM
NCI-H226 lung
  TGI: > 100 µM
A498 renal
  TGI: > 100 µM
OVCAR-5 ovarian
  TGI: > 100 µM
PC-3 prostate
  TGI: > 100 µM
ACHN renal
  TGI: > 100 µM
SK-MEL-5 melanoma
  TGI: > 100 µM
HOP-62 NSCLC
  TGI: > 100 µM
SF-539 CNS
  TGI: > 100 µM
NCI-H460 lung
  TGI: > 100 µM
LOX IMVI melanoma
  TGI: > 100 µM
HCC-2998 colon
  TGI: > 100 µM
UACC-257 melanoma
  TGI: > 100 µM
U251 CNS
  TGI: > 100 µM
BT-549 breast
  TGI: > 100 µM
HL-60(TB) leukemia
  TGI: > 100 µM
HT29 colon
  TGI: > 100 µM
UACC-62 melanoma
  TGI: > 100 µM
K-562 leukemia
  TGI: > 100 µM
CAKI-1 renal
  TGI: > 100 µM
SK-MEL-28 melanoma
  TGI: > 100 µM
IGROV1 ovarian
  TGI: > 100 µM
SNB-75 CNS
  TGI: > 100 µM
SF-268 CNS
  TGI: > 100 µM
OVCAR-4 ovarian
  TGI: > 100 µM
HCT-15 colon
  TGI: > 100 µM
A549 NSCLC
  TGI: > 100 µM
MOLT-4 leukemia
  TGI: > 100 µM
HCT-116 colon
  TGI: > 100 µM
COLO 205 colon
  TGI: > 100 µM
MALME-3M melanoma
  TGI: > 100 µM
NCI-H23 lung
  TGI: > 100 µM
SF-295 CNS
  TGI: > 100 µM
RXF 393 renal
  TGI: > 100 µM
SW-620 colon
  TGI: > 100 µM
